Legend:
Assay in all cases: relative viability (nuclei count vs DMSO), 5 days (fraction); higher = more cells survive
[1] = compound: CC1=C(C=CC(=C1)[N+](=O)[O-])NS(=O)(=O)C2=C(C=CC(=C2)Cl)Cl [FH535] + C[C@@H](Oc1cc(-c2cnn(C3CCNCC3)c2)cnc1N)c1c(Cl)ccc(F)c1Cl [Crizotinib] (partner 1 µM)
Outline: (§1)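 Each reported value is a median over duplicate plates. It expresses relative viability: treated-well nuclei count divided by vehicle-well nuclei count. Lung cancer cell lines in 1536-well plates were dosed by pin tool a day after seeding, alone with one drug or with a fixed anchor-drug dose plus five library-drug doses (not always all listed) in √10 steps, and nuclei were counted after 5 days.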

[2] = compound: CC1=C(C=CC(=C1)[N+](=O)[O-])NS(=O)(=O)C2=C(C=CC(=C2)Cl)Cl [FH535] + N=C(N)NC(=N)NCCc1ccccc1 [Phenformin] (partner 250 µM)
Outline: as §1

[3] = compound: CC1=C(C=CC(=C1)[N+](=O)[O-])NS(=O)(=O)C2=C(C=CC(=C2)Cl)Cl [FH535] + Cc1nc(NC(=O)N2CCC[C@H]2C(N)=O)sc1-c1ccnc(C(C)(C)C(F)(F)F)c1 [Alpelisib] (partner 2 µM)
Outline: as §1

[4] = compound: CC1=C(C=CC(=C1)[N+](=O)[O-])NS(=O)(=O)C2=C(C=CC(=C2)Cl)Cl [FH535] + COc1cccc2cc(-c3nc([C@H]4CC[C@H](C(=O)O)CC4)n4ncnc(N)c34)[nH]c12 [OSI-027] (partner 0.5 µM)
Outline: as §1

[5] = compound: CC1=C(C=CC(=C1)[N+](=O)[O-])NS(=O)(=O)C2=C(C=CC(=C2)Cl)Cl [FH535] + COc1cc2c(Oc3ccc(NC(=O)C4(C(=O)Nc5ccc(F)cc5)CC4)cc3F)ccnc2cc1OCCCN1CCOCC1 [Foretinib] (partner 0.25 µM)
Outline: as §1

Cell Line: SK-LU-1
- relative viability ([1]; first compound 0.04 µM): 1.15
- relative viability ([1]; first compound 0.1265 µM): 0.793
- relative viability ([1]; first compound 0.4 µM): 0.849
- relative viability ([1]; first compound 1.265 µM): 0.703
- relative viability ([2]; first compound 0.04 µM): 0.563
- relative viability ([2]; first compound 0.1265 µM): 0.622
- relative viability ([2]; first compound 0.4 µM): 0.491
- relative viability ([2]; first compound 1.265 µM): 0.305
- relative viability ([3]; first compound 0.04 µM): 0.913
- relative viability ([3]; first compound 0.1265 µM): 1.1
- relative viability ([3]; first compound 0.4 µM): 0.949
- relative viability ([3]; first compound 1.265 µM): 0.616
- relative viability ([4]; first compound 0.04 µM): 0.359
- relative viability ([4]; first compound 0.1265 µM): 0.347
- relative viability ([4]; first compound 0.4 µM): 0.324
- relative viability ([4]; first compound 1.265 µM): 0.235
- relative viability ([5]; first compound 0.04 µM): 0.834
- relative viability ([5]; first compound 0.1265 µM): 0.805
- relative viability ([5]; first compound 0.4 µM): 0.822
- relative viability ([5]; first compound 1.265 µM): 0.662

Cell Line: SK-MES-1
- relative viability ([1]; first compound 0.04 µM): 0.975
- relative viability ([1]; first compound 0.1265 µM): 1.01
- relative viability ([1]; first compound 0.4 µM): 0.973
- relative viability ([1]; first compound 1.265 µM): 0.855
- relative viability ([2]; first compound 0.04 µM): 0.71
- relative viability ([2]; first compound 0.1265 µM): 0.614
- relative viability ([2]; first compound 0.4 µM): 0.553
- relative viability ([2]; first compound 1.265 µM): 0.385
- relative viability ([3]; first compound 0.04 µM): 0.865
- relative viability ([3]; first compound 0.1265 µM): 0.941
- relative viability ([3]; first compound 0.4 µM): 0.855
- relative viability ([3]; first compound 1.265 µM): 0.881
- relative viability ([4]; first compound 0.04 µM): 0.679
- relative viability ([4]; first compound 0.1265 µM): 0.573
- relative viability ([4]; first compound 0.4 µM): 0.565
- relative viability ([4]; first compound 1.265 µM): 0.435
- relative viability ([5]; first compound 0.04 µM): 0.918
- relative viability ([5]; first compound 0.1265 µM): 1.05
- relative viability ([5]; first compound 0.4 µM): 0.963
- relative viability ([5]; first compound 1.265 µM): 0.814

Cell Line: SW 1573
- relative viability ([1]; first compound 0.04 µM): 0.64
- relative viability ([1]; first compound 0.1265 µM): 0.751
- relative viability ([1]; first compound 0.4 µM): 0.865
- relative viability ([1]; first compound 1.265 µM): 0.683
- relative viability ([2]; first compound 0.04 µM): 0.387
- relative viability ([2]; first compound 0.1265 µM): 0.372
- relative viability ([2]; first compound 0.4 µM): 0.307
- relative viability ([2]; first compound 1.265 µM): 0.163
- relative viability ([3]; first compound 0.04 µM): 0.726
- relative viability ([3]; first compound 0.1265 µM): 0.693
- relative viability ([3]; first compound 0.4 µM): 0.623
- relative viability ([3]; first compound 1.265 µM): 0.689
- relative viability ([4]; first compound 0.04 µM): 0.601
- relative viability ([4]; first compound 0.1265 µM): 0.613
- relative viability ([4]; first compound 0.4 µM): 0.67
- relative viability ([4]; first compound 1.265 µM): 0.445
- relative viability ([5]; first compound 0.04 µM): 0.784
- relative viability ([5]; first compound 0.1265 µM): 0.944
- relative viability ([5]; first compound 0.4 µM): 1.01
- relative viability ([5]; first compound 1.265 µM): 0.89

Cell Line: UMC-11
- relative viability ([1]; first compound 0.04 µM): 0.639
- relative viability ([1]; first compound 0.1265 µM): 0.583
- relative viability ([1]; first compound 0.4 µM): 0.582
- relative viability ([1]; first compound 1.265 µM): 0.626
- relative viability ([2]; first compound 0.04 µM): 0.289
- relative viability ([2]; first compound 0.1265 µM): 0.378
- relative viability ([2]; first compound 0.4 µM): 0.28
- relative viability ([2]; first compound 1.265 µM): 0.211
- relative viability ([3]; first compound 0.04 µM): 0.939
- relative viability ([3]; first compound 0.1265 µM): 1.13
- relative viability ([3]; first compound 0.4 µM): 0.96
- relative viability ([3]; first compound 1.265 µM): 0.857
- relative viability ([4]; first compound 0.04 µM): 0.413
- relative viability ([4]; first compound 0.1265 µM): 0.561
- relative viability ([4]; first compound 0.4 µM): 0.431
- relative viability ([4]; first compound 1.265 µM): 0.416
- relative viability ([5]; first compound 0.04 µM): 0.967
- relative viability ([5]; first compound 0.1265 µM): 1.13
- relative viability ([5]; first compound 0.4 µM): 1.03
- relative viability ([5]; first compound 1.265 µM): 0.88

— the supplement of paper PMC10307832
